Results: patent US20190330224A1, “ACC INHIBITORS AND USES THEREOF” (Gilead Apollo, LLC, priority 2015, published 2019)
pIC50: −log10 of the molar value. Converted amounts (≈) assume the structure as drawn.

What was measured:
Septoria tritici (St) = assay: Growth inhibition assay of fungal pathogens, St; type: cell-based; details: Zymoseptoria tritici; 48 hours; read-out: Concentration at 90% Inhibition, St
Procedure: (§1) Compounds of the present invention were evaluated in a growth inhibition assay to determine the ability to control the growth of fungal pathogens, such as Botrtyis cinerea (Bc). Collectotrichum graminicola (Cg), Diplodia maydis (Dm), Fusarium moniliforme (Fm), Fusarium virguliforme (Fv), Phytophthora capsici (Pc), Rhizoctonia solani (Rs), and Septoria tritici (St). Compounds to be tested were dissolved in DMSO at 2.5 mg/ml to produce compound stock solutions (“stocks”). Stocks were diluted with DMSO by a five-fold dilution in a 96-well stock plate, and two sets of final concentrations of 50, 10, and 2 ppm or 2, 0.4, and 0.08 ppm were obtained in vitro. A set of positive controls was also prepared, with various concentrations of Soraphen (2, 0.4, and 0.08 ppm), Metalaxyl (1.1, 0.22, and 0.04 ppm), and Metconazole (2, 0.4, and 0.08 ppm or 0.2, 0.04, and 0.008 ppm) after the five-fold dilutions. Negative controls on each plate included 2% DMSO, water, and a blank (media+2% DMSO). Fungal spores were isolated from previously sub-cultured plates of Botrtyis cinerea (Bc), Collectotrichum graminicola (Cg), Diplodia maydis (Dm), Fusarium moniliforme (Fm), Fusarium virguliforme (Fv), Phytophthora capsici (Pc), and Septoria tritici (St). The isolated spores were diluted to individual concentrations with a 17% V8 liquid media. For Rhizoctonia solani (Rs) and Pythium irregulare, 1.5 mm mycelial plugs were used in place of spores and ¼ Potato Dextrose Broth (PDB) was used for dilution. The spore concentrations and plug sizes were based on growth curves generated at 48 hours for each pathogen. In a second 96-well plate, the spores or mycelial plugs, media, diluted compound solutions, and controls were combined. Once the compound was added, a true final concentration of compound in each well was measured by an OD600 reading, which adjusted for any compound precipitation that might have occurred in the well. Plate readings were repeated at both 24 and 48 hours. The blank negative control was used as a background subtraction. Additional visual ratings were performed at both 24 and 48 hours for checking on precipitation and confirming efficacy. Visual and OD600 ratings of the compounds at 48 hours were compared to the 2% DMSO negative control, and the percent of pathogen growth inhibition was determined based on those values.

[1] = test system: Fusarium moniliforme (Fm); assay: Growth inhibition assay of fungal pathogens, Fm; type: cell-based; details: Fusarium verticillioides; 48 hours; read-out: Concentration at 90% Inhibition, Fm
Procedure: as §1

Human ACC2 = Human ACC2 (Homo sapiens, UniProt O00763); assay: In vitro ACC2 inhibition assay (ADP-Glo), human ACC2; type: biochemical; details: 5 nM ACC2, 20 μM ATP, 20 μM acetyl-CoA
Rhizoctonia solani (Rs) = assay: Growth inhibition assay of fungal pathogens, Rs; type: cell-based; details: 48 hours, read-out: Concentration at 90% Inhibition, Rs
Procedure: as §1

[2] = compound concentration 10 ppm, foliar spray, evaluated 7 days after inoculation
[3] = test system: Fusarium virguliforme (Fv); assay: Growth inhibition assay of fungal pathogens, Fv; type: cell-based; details: 48 hours, read-out: Concentration at 90% Inhibition, Fv
Procedure: as §1

[4] = test system: Phytophthora capsici (Pc); assay: Growth inhibition assay of fungal pathogens, Pc; type: cell-based; details: 48 hours, read-out: Concentration at 90% Inhibition, Pc
Procedure: as §1

Diplodia maydis (Dm) = assay: Growth inhibition assay of fungal pathogens, Dm; type: cell-based; details: Stenocarpella maydis; 48 hours; read-out: Concentration at 90% Inhibition, Dm
Procedure: as §1

[5] = test system: Collectotrichum graminicola (Cg); assay: Growth inhibition assay of fungal pathogens, Cg; type: cell-based; details: 48 hours; read-out: Concentration at 90% Inhibition, Cg
Procedure: as §1

[6] = test system: Blumeria graminis f sp. hordei; assay: Foliar protection test, barley powdery mildew control; type: in vivo, Blumeria graminis f sp. hordei on Hordeum vulgare cv. Perry; details: 168 h, compound concentration 50 ppm, foliar spray, evaluated 7 days after inoculation, read-out: Barley Powdery Mildew Control at 50 ppm
Procedure: Compounds of the present invention were evaluated in a foliar protection test to determine the ability to control barley powdery mildew. Plants (Hordeum vulgare cv. Perry) were grown for 6 days in 2-inch square pots containing Metromix 200 medium amended with fertilizer. For propagation, plants were maintained in a growth chamber at conditions of 20 to 21° C., 16 hour light cycle, 400 uM of light, 70% humidity, and with sub-irrigation as needed. After inoculation with the pathogen of Blumeria graminis f sp. hordei, plants were kept at conditions of 20 to 22° C., 70% relative humidity, and 200 uM of light to facilitate infection and disease development. At 6 days after planting (1st true leaf fully expanded), the test compounds were dissolved in a solution of 5% acetone and 0.005% Tween 80 surfactant. An atomizer was used for applying the solution onto both sides of the leaves until thoroughly wetted. The amount of the compound applied to the leaves was typically 200, 100, 50, 10, or 2 ppm, but it may vary. At 24 hours after treatment, the plants were moved to a cooler chamber and inoculated by shaking well-colonized, untreated stock plants above the treated plants. This allowed producing a settling cloud of spores and resulting in uniform infection. Efficacy was evaluated in 7 days later by examining leaves for colonization and growth of mildew. Table 5 lists the results of barley powdery mildew control at a compound concentration of 50 ppm or 10 ppm. Compounds having an activity designated as “AA” provided a compound having >85% control of barley powdery mildew; compounds having an activity designated as “A” provided a compound having from 70% to 84% control of barley powdery mildew; compounds having an activity designated as “B” provided a compound having from 50 to 69% control of barley powdery mildew; compounds having an activity designated as “C” provided a compound having from 25 to 49% control of barley powdery mildew; and compounds having an activity designated as “D” provided a compound having <25% control of barley powdery mildew.

Botrtyis cinerea (Bc) = assay: Growth inhibition assay of fungal pathogens, Bc; type: cell-based; details: 48 hours; read-out: Concentration at 90% Inhibition, Bc
Procedure: as §1

C. krusei ATCC 6258 = assay: Anti-Fungal Activity Assay (broth microtiter MIC), C. krusei; type: cell-based, Candida krusei; details: Pichia kudriavzevii, ATCC6258, 48 h, 3 replicates; MIC recorded at 48 h; read-out: MIC C. krusei ATCC 6258
How it was run: (§2)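 Plate from frozen stock onto Sabouraud dextrose agar, 35° C overnight; swab colonies into RPMI 1640+MOPS; set density via standard curves; run CLSI M27-A3 broth microdilution; score MIC visually versus growth control at 48 h, soraphen additionally at 24 h.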

[7] = test system: C. parapsilosis ATCC 22019; assay: Anti-Fungal Activity Assay (broth microtiter MIC), C. parapsilosis; type: cell-based, Candida parapsilosis; details: Lodderomyces parapsilosis, ATCC22019, 48 h, 3 replicates; MIC recorded at 48 h; read-out: MIC C. parapsilosis ATCC 22019
How it was run: as §2

C. albicans ATCC 90028 = assay: Anti-Fungal Activity Assay (broth microtiter MIC), C. albicans; type: cell-based, Candida albicans; details: Candida albicans, ATCC90028, 48 h, 3 replicates; MIC recorded at 48 h; read-out: MIC C. albicans ATCC 90028
How it was run: as §2

Fungal ACC2 = Fungal ACC2 (UniProt Q00955); details: read-out: Fungal ACC2 (IC50, in vitro ACC2 inhibition)
Sequence of Fungal ACC2 (Q00955 whole entry): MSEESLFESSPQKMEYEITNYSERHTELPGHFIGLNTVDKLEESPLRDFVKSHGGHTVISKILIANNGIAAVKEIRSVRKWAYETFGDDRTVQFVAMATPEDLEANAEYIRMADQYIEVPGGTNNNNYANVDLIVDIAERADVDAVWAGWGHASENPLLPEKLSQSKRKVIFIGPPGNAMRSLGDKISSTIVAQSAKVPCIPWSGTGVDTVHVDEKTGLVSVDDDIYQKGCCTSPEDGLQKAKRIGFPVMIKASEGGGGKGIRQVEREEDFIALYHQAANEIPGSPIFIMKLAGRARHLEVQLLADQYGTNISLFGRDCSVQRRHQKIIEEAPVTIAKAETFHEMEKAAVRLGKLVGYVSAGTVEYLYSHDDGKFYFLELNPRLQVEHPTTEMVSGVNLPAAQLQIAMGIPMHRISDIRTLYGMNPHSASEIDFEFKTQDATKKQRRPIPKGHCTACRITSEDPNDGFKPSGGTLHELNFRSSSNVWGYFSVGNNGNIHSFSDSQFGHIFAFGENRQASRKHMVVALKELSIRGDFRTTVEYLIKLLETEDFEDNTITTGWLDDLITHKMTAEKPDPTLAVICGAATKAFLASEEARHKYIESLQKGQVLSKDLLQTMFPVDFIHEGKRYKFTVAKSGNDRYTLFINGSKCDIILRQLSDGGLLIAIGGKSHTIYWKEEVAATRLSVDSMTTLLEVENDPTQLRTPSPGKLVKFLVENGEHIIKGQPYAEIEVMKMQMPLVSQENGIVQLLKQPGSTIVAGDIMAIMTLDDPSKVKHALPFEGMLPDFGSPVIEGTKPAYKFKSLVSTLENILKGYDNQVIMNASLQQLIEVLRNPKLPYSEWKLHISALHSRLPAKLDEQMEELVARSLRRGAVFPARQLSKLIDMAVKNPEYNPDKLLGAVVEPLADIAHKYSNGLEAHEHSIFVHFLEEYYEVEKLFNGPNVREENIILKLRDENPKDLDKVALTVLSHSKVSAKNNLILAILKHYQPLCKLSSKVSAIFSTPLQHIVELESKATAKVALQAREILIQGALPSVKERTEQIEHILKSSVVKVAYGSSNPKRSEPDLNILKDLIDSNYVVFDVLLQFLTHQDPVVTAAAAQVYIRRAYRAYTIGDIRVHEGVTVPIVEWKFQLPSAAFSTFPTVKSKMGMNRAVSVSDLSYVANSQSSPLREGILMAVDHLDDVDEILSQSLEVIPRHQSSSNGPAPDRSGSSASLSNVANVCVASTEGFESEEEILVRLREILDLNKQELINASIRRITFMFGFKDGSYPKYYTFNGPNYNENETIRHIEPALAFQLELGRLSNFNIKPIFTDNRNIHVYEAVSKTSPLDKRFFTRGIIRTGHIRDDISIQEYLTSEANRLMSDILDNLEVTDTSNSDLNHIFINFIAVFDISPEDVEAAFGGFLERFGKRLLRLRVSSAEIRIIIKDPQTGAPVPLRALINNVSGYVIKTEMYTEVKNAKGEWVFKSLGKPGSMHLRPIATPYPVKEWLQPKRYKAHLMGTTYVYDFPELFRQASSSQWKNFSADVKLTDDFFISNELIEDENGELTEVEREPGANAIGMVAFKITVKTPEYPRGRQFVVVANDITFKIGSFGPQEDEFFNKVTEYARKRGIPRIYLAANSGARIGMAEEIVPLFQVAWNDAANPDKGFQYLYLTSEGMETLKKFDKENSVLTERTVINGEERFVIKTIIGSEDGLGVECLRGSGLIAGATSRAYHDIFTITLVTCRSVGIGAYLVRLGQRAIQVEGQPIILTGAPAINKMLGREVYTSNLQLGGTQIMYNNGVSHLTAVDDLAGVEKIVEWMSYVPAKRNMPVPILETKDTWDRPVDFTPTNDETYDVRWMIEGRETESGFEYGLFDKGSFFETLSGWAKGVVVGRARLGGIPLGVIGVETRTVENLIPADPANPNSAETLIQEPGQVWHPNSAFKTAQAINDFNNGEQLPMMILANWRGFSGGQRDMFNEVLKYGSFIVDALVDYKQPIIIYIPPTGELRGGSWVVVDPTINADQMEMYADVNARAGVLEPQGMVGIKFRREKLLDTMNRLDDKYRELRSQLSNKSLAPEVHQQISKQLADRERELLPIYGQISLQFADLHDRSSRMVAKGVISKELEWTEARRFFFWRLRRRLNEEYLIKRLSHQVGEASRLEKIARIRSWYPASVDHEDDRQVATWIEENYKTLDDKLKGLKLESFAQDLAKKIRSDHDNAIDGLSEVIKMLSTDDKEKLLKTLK

Sequence of Human ACC2 (O00763 whole entry): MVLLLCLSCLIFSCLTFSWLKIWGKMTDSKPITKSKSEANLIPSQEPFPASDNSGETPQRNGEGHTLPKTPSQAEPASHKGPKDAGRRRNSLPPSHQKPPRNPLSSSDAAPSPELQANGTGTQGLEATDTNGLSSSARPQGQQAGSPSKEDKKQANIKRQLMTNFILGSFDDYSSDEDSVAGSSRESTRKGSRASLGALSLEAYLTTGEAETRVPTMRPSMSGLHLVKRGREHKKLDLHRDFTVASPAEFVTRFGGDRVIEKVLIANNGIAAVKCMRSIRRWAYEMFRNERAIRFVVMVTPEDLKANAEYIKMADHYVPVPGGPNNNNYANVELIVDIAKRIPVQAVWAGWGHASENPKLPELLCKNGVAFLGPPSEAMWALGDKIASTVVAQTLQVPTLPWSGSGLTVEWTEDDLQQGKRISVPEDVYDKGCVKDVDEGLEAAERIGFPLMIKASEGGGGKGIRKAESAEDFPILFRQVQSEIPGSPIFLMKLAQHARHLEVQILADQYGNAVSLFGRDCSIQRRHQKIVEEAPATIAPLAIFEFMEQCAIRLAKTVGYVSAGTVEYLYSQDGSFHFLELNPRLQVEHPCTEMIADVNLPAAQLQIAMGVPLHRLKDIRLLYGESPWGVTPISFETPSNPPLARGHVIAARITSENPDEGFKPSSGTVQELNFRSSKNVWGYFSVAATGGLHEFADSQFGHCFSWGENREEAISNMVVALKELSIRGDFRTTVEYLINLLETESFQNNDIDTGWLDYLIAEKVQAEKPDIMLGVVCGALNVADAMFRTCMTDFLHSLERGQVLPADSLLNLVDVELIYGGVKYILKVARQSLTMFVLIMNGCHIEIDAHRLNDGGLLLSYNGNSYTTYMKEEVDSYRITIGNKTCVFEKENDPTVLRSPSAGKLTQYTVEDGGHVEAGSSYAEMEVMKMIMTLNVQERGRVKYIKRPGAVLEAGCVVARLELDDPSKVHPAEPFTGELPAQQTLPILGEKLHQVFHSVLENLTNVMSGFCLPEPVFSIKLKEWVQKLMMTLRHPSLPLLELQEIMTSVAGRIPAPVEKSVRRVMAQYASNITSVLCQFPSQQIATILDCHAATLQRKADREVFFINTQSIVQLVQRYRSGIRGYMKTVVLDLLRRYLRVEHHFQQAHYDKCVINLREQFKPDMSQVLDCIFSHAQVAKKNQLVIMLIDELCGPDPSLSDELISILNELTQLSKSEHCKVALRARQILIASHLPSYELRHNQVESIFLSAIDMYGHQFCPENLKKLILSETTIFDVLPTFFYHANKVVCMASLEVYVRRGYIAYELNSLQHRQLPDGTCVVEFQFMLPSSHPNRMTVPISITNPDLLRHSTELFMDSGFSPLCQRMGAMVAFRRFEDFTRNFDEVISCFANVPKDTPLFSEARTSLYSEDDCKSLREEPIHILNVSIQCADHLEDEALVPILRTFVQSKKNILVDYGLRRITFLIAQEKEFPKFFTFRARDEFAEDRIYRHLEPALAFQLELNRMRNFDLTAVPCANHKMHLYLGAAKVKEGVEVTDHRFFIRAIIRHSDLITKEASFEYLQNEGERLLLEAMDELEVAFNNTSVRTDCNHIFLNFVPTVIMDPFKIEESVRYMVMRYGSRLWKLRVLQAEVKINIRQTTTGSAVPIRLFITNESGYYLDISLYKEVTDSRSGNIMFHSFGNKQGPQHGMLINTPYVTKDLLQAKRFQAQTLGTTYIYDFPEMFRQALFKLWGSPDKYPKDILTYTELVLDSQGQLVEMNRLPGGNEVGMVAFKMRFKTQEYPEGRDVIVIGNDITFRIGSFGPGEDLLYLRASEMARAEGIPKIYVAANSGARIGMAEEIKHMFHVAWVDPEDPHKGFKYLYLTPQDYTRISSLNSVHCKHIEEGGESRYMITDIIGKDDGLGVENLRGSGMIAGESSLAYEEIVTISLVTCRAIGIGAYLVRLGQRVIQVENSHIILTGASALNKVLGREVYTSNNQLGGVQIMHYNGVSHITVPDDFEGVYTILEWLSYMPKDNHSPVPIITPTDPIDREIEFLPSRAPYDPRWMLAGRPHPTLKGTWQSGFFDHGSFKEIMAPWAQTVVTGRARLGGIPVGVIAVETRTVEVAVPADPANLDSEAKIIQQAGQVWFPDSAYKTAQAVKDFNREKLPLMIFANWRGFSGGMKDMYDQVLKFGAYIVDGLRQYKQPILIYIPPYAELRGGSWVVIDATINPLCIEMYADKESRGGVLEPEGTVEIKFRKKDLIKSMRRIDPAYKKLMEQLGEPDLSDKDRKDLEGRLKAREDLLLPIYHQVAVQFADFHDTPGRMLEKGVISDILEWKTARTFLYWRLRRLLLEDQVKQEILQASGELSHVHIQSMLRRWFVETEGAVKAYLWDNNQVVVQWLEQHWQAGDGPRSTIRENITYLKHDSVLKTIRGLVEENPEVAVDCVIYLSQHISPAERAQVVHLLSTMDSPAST

Row | SMILES | IC90 (Septoria tritici (St)) [µg/mL] | IC90 [1] [µg/mL] | pIC50 (Human ACC2) | IC90 (Rhizoctonia solani (Rs)) [µg/mL] | Barley Powdery Mildew Control at 10 ppm [2] | IC90 [3] [µg/mL] | IC90 [4] [µg/mL] | IC90 (Diplodia maydis (Dm)) [µg/mL] | IC90 [5] [µg/mL] | pest or weed control at 50 ppm [6] [%] | IC90 (Botrtyis cinerea (Bc)) [µg/mL] | MIC (C. krusei ATCC 6258) [µg/mL] | MIC [7] [µg/mL] | MIC (C. albicans ATCC 90028) [µg/mL] | pIC50 (Fungal ACC2)
1 | COc1ccc(F)cc1[C@H](Cn1c(=O)n([C@H]2CCCN(C(C)C)C2=O)c(=O)c2c(C)c(-n3nccn3)sc21)OCCO [Compound I-74, 1-((R)-2-(5-fluoro-2-methoxyphenyl)-2-(2-hydroxy-ethoxy)ethyl)-3-((S)-1-isopropyl-2-oxopiperidin-3-yl)-5-methyl-6-(2H-1,2,3-triazol-2-yl)thieno[2,3-d]pyrimidine-2,4(1H,3H)-dione] | > 50 | 2 (≈ 3.33 µM) | 7.00 to 8.00 | 2 (≈ 3.33 µM) | D (provided a compound having <25% control of barley powdery mildew) | 2 (≈ 3.33 µM) | > 50 | 10 (≈ 16.6 µM) | 10 (≈ 16.6 µM) | 70 to 84 | 2 (≈ 3.33 µM) | – | – | – | –
2 | COc1ccc(F)cc1[C@H](Cn1c(=O)n([C@@H]2CCCN(C(C)C)C2=O)c(=O)c2c(C)c(-n3nccn3)sc21)OCCO [Compound I-75, 1-((R)-2-(5-fluoro-2-methoxyphenyl)-2-(2-hydroxy-ethoxy)ethyl)-3-((R)-1-isopropyl-2-oxopiperidin-3-yl)-5-methyl-6-(2H-1,2,3-triazol-2-yl)thieno[2,3-d]pyrimidine-2,4(1H,3H)-dione] | > 50 | 2 (≈ 3.33 µM) | 7.00 to 8.00 | 2 (≈ 3.33 µM) | D (provided a compound having <25% control of barley powdery mildew) | 10 (≈ 16.6 µM) | > 50 | 10 (≈ 16.6 µM) | 10 (≈ 16.6 µM) | 50 to 69 | 2 (≈ 3.33 µM) | 2.1 to 4 (≈ 3.5 to 6.66 µM) | 2.1 to 4 (≈ 3.5 to 6.66 µM) | 2.1 to 4 (≈ 3.5 to 6.66 µM) | –
3 | COCCO[C@@H](Cn1c(=O)n([C@H]2CCCN(C(C)C)C2=O)c(=O)c2c(C)c(-n3nccn3)sc21)c1cc(F)ccc1OC [Compound I-78, 1-((R)-2-(5-fluoro-2-methoxyphenyl)-2-(2-methoxy-ethoxy)ethyl)-3-((S)-1-isopropyl-2-oxopiperidin-3-yl)-5-methyl-6-(2H-1,2,3-triazol-2-yl)thieno[2,3-d]pyrimidine-2,4(1H,3H)-dione] | > 50 | 2 (≈ 3.25 µM) | 7.00 to 8.00 | > 50 | – | > 50 | > 50 | 10 (≈ 16.3 µM) | > 50 | 25 to 49 | 2 (≈ 3.25 µM) | 2.1 to 4 (≈ 3.42 to 6.51 µM) | 2.1 to 4 (≈ 3.42 to 6.51 µM) | 2.1 to 4 (≈ 3.42 to 6.51 µM) | 8.00 to 8.70
4 | COCCO[C@@H](Cn1c(=O)n([C@@H]2CCCN(C(C)C)C2=O)c(=O)c2c(C)c(-n3nccn3)sc21)c1cc(F)ccc1OC [Compound I-79, 1-((R)-2-(5-fluoro-2-methoxyphenyl)-2-(2-methoxy-ethoxy)ethyl)-3-((R)-1-isopropyl-2-oxopiperidin-3-yl)-5-methyl-6-(2H-1,2,3-triazol-2-yl)thieno[2,3-d]pyrimidine-2,4(1H,3H)-dione] | > 50 | 10 (≈ 16.3 µM) | 6.00 to 7.00 | > 50 | – | > 50 | > 50 | 10 (≈ 16.3 µM) | > 50 | 50 to 69 | > 50 | 1.1 to 2 (≈ 1.79 to 3.25 µM) | 0.25 to 1 (≈ 0.407 to 1.63 µM) | 1.1 to 2 (≈ 1.79 to 3.25 µM) | 8.00 to 8.70
5 | COc1ccc(F)cc1[C@H](Cn1c(=O)n([C@H]2CCN(C(C)C)C2=O)c(=O)c2c(C)c(-n3nccn3)sc21)OCCO [Compound I-84, 1-((R)-2-(5-fluoro-2-methoxyphenyl)-2-(2-hydroxy-ethoxy)ethyl)-3-((S)-1-isopropyl-2-oxopyrrolidin-3-yl)-5-methyl-6-(2H-1,2,3-triazol-2-yl)thieno[2,3-d]pyrimidine-2.4(1H,3H)-dione] | > 50 | 2 (≈ 3.41 µM) | 8.00 to 8.70 | 2 (≈ 3.41 µM) | D (provided a compound having <25% control of barley powdery mildew) | 2 (≈ 3.41 µM) | > 50 | 10 (≈ 17 µM) | 2 (≈ 3.41 µM) | 50 to 69 | 2 (≈ 3.41 µM) | 2.1 to 4 (≈ 3.58 to 6.82 µM) | 2.1 to 4 (≈ 3.58 to 6.82 µM) | 2.1 to 4 (≈ 3.58 to 6.82 µM) | –
6 | COc1ccc(F)cc1[C@@H](O)Cn1c(=O)n([C@H]2CCN(C)C2=O)c(=O)c2c(C)c(-n3nccn3)sc21 [Compound I-164, 1-((R)-2-(5-fluoro-2-methoxyphenyl)-2-hydroxyethyl)-5-methyl-3-((S)-1-methyl-2-oxopyrrolidin-3-yl)-6-(2H-1,2,3-triazol-2-yl)thieno[2,3-d]pyrimidine-2,4(1H,3H)-dione] | > 50 | 0.4 (≈ 0.777 µM) | 7.00 to 8.00 | 0.4 (≈ 0.777 µM) | B (provided a compound having from 50 to 69% control of barley powdery mildew) | 2 (≈ 3.89 µM) | > 50 | > 50 | 10 (≈ 19.4 µM) | – | 2 (≈ 3.89 µM) | 1.1 to 2 (≈ 2.14 to 3.89 µM) | 2.1 to 4 (≈ 4.08 to 7.77 µM) | 2.1 to 4 (≈ 4.08 to 7.77 µM) | 8.70 to 9.15
